Data reported in PubChem BioAssay (NCI).
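Briefly, cells in 96-well plates were exposed to five compound concentrations for 48 h, and endpoints were estimated by linear interpolation. Definition used: TGI = concentration required for complete inhibition of growth.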

Experiments:
Assay in all cases: inhibition of tumour cell growth, NCI panel, 48 h
CCRF-CEM leukemia = system: CCRF-CEM leukemia
EKVX NSCLC = system: EKVX NSCLC
LOX IMVI melanoma = system: LOX IMVI melanoma
MDA-N = system: MDA-N
HL-60(TB) leukemia = system: HL-60(TB) leukemia
ACHN renal = system: ACHN renal
RXF 393 renal = system: RXF 393 renal
U251 CNS = system: U251 CNS
TK-10 renal = system: TK-10 renal
PC-3 prostate = system: PC-3 prostate
OVCAR-8 ovarian = system: OVCAR-8 ovarian
RPMI-8226 leukemia = system: RPMI-8226 leukemia
HT29 colon = system: HT29 colon
T-47D breast = system: T-47D breast
SK-MEL-5 melanoma = system: SK-MEL-5 melanoma
SN12C renal = system: SN12C renal
HCT-116 colon = system: HCT-116 colon
A549 NSCLC = system: A549 NSCLC
IGROV1 ovarian = system: IGROV1 ovarian
NCI-H226 lung = system: NCI-H226 lung

Row | Compound | TGI (CCRF-CEM leukemia) | TGI (EKVX NSCLC) | TGI (LOX IMVI melanoma) | TGI (MDA-N) | TGI (HL-60(TB) leukemia) | TGI (ACHN renal) | TGI (RXF 393 renal) | TGI (U251 CNS) | TGI (TK-10 renal) | TGI (PC-3 prostate) | TGI (OVCAR-8 ovarian) | TGI (RPMI-8226 leukemia) | TGI (HT29 colon) | TGI (T-47D breast) | TGI (SK-MEL-5 melanoma) | TGI (SN12C renal) | TGI (HCT-116 colon) | TGI (A549 NSCLC) | TGI (IGROV1 ovarian) | TGI (NCI-H226 lung)
1 | CN(C)c1ccc(/C=C/C(=O)CC(=O)/C=C/c2ccc(N(C)C)cc2)cc1 | > 100 µM | > 100 µM | > 100 µM | > 100 µM | > 100 µM | > 100 µM | > 100 µM | > 100 µM | > 100 µM | > 100 µM | > 100 µM | > 100 µM | > 100 µM | > 100 µM | > 100 µM | > 100 µM | > 100 µM | > 100 µM | > 100 µM | > 100 µM
2 | Cc1ccc2nc3c(=O)[nH]c(=O)nc-3n(C)c2c1C | > 100 µM | > 100 µM | > 100 µM | > 100 µM | > 100 µM | > 100 µM | > 100 µM | > 100 µM | > 100 µM | > 100 µM | > 100 µM | > 100 µM | > 100 µM | > 100 µM | > 100 µM | > 100 µM | > 100 µM | > 100 µM | > 100 µM | > 100 µM
3 | CC(=O)OCCCC(NC(=O)OC(C)(C)C)C(=O)NC(CCCOC(C)=O)C(=O)NC(Cc1ccc([N+](=O)[O-])cc1)C(=O)NCC(=O)OCc1ccccc1 (centres undefined) | > 100 µM | 33.3 µM | 25.9 µM | 28.6 µM | 19.5 µM | 31.5 µM | 31.1 µM | 32.8 µM | 43.3 µM | 30.9 µM | 31 µM | 44.6 µM | 31.9 µM | 33.5 µM | 30.1 µM | 31.6 µM | 32.4 µM | 38.8 µM | 34 µM | 31.3 µM
4 | COC(=O)[C@H](Cc1ccccc1)NP(=O)(OCCC#N)OCC1OC(n2cc(C)c(=O)[nH]c2=O)CC1N=[N+]=[N-] (some centres undefined) | > 100 µM | > 100 µM | > 100 µM | > 100 µM | > 100 µM | > 100 µM | > 100 µM | > 100 µM | > 100 µM | > 100 µM | > 100 µM | > 100 µM | > 100 µM | > 100 µM | > 100 µM | > 100 µM | > 100 µM | > 100 µM | > 100 µM | > 100 µM
5 | CN1CCc2c3n(c4cc(Br)ccc24)[C@H](O)CCCC31 (some centres undefined) | 3.74 µM | > 10 µM | 3.29 µM | 3.24 µM | 4.15 µM | > 10 µM | 7.74 µM | 3.35 µM | > 10 µM | > 10 µM | 3.43 µM | 5.36 µM | 3.28 µM | > 10 µM | > 8.72 µM | > 10 µM | 3.07 µM | > 10 µM | > 10 µM | > 10 µM
6 | CC(CC[C@@H](O)C(C)(C)O)C1[C@@H](O)CC2(C)C3CC(O)C4C(C)(C)[C@@H](OC5OC(CO)C(O)C(O)C5O)CC[C@@]45C[C@@]35CC[C@]12C (some centres undefined) | > 10 µM | > 10 µM |  | > 10 µM | > 10 µM | > 10 µM | > 10 µM | > 10 µM | > 10 µM | > 10 µM | > 10 µM | > 10 µM | > 10 µM | > 10 µM | > 10 µM | > 10 µM | > 10 µM | > 10 µM | > 10 µM | > 10 µM
7 | CCc1cc2c(c3c1CCC3=O)CC1(Cc3ccc(C)cc3C1)C2 (centres undefined) | 34.7 µM | > 100 µM | > 100 µM | > 100 µM | 41 µM | > 100 µM | > 100 µM | > 100 µM | > 100 µM | 91.7 µM | > 100 µM | 94.8 µM | 46.9 µM | > 100 µM | 76.8 µM | > 100 µM | 33.1 µM | 40.8 µM | > 100 µM | 99.8 µM
8 | CC[C@H](CCCC[C@H]1CC[C@@H]2CC(=O)C[C@H]12)OC | > 100 µM | > 100 µM | > 100 µM | > 100 µM | 67.8 µM | > 100 µM | > 100 µM | > 100 µM | > 100 µM | > 100 µM | > 100 µM | > 100 µM | > 100 µM | > 100 µM | 93 µM | > 100 µM | > 100 µM | > 100 µM | > 100 µM | > 100 µM
9 | OC1c2ccccc2CC12Cc1ccccc1C2 (centres undefined) | > 100 µM | > 100 µM | > 100 µM | > 100 µM | > 100 µM | > 100 µM | > 100 µM | > 100 µM | > 100 µM | > 100 µM | > 100 µM | > 100 µM | > 100 µM | > 100 µM | 49.6 µM | > 100 µM | > 100 µM | > 100 µM | > 100 µM | 25.1 µM
10 | c1ccc(-c2nnc(-c3ccccn3)c3c2C[C@@H]2C[C@@H]4Cc5c(-c6ccccn6)nnc(-c6ccccn6)c5[C@@H]4[C@H]32)nc1 | > 100 µM | 36.8 µM | > 100 µM | > 100 µM | 58.8 µM | > 100 µM | > 100 µM | 89.1 µM | > 100 µM | > 100 µM | > 100 µM | > 100 µM | > 100 µM | > 100 µM | > 100 µM | > 100 µM | > 100 µM | > 100 µM | > 100 µM | > 100 µM
11 | COc1ccc(/C=C2\NC(=S)N(/C=C3\C(=O)Oc4ccccc4C3=O)C2=O)cc1OC | > 100 µM | > 100 µM | > 100 µM | > 100 µM | > 100 µM | > 100 µM | > 100 µM | > 100 µM | > 100 µM | > 100 µM | > 100 µM | > 100 µM | > 100 µM | > 100 µM | > 100 µM | > 100 µM | > 100 µM | > 100 µM | > 100 µM | > 100 µM
